Where two headings read alike, the source gives them in different places.

For this assay, the target named is T1, cathepsin B (Bos taurus, UniProt P07688).
T1 construct: gene CTSB; cathepsin B from bovine spleen (Sigma C6286)
Kind of assay: fluorogenic enzyme assay with Z-Arg-Arg-AMC, pH […] °C. In kind it is biochemical.

Consider `CC[C@H]1C=CC(=O)O[C@H]1/C=C/[C@](O)(CCO)[C@H](O)C[C@@H](O)/C=C\C=C/[C@@H]1CCC[C@H](O)C1` [compound 1, Lactomycin A], for which, where the note is “read-out: IC50”, the IC50 was found to be 4.5 µM.

`CC[C@H]1C=CC(=O)O[C@H]1/C=C/[C@](O)(CCN)[C@H](O)C[C@@H](O)/C=C\C=C/[C@@H]1CCC[C@H](O)C1` [compound 2, Lactomycin B]: the IC50 (read-out: IC50) was 0.8 µM.

Turning to `CC[C@H]1C=CC(=O)O[C@H]1/C=C/[C@@](C)(O)[C@H](O)C[C@@H](O)/C=C\C=C/[C@@H]1CCC[C@H](O)C1` [compound 3, Lactomycin C], the IC50 stood at 1.6 µM.

Broadly, the IC50 is the point on the concentration scale where inhibition reaches its midpoint.

(Values after paper PMC5852498, “Lactomycins A–C, Dephosphorylated Phoslactomycin Derivatives That Inhibit Cathepsin B, from the Marine-Derived Streptomyces sp. ACT232” (Marine Drugs, 2018).)
